Patent US11426385B2, “Methods of improving cancer chemotherapy” (THE REGENTS OF THE UNIVERSITY OF CALIFORNIA, priority 2017, dated 2022)
pIC50: −log10 of the molar value. Values joined by “and” are separate entries in the source; they are usually repeats but may differ in a detail not shown here. Equal entries are not always repeated.

Key:
COX-1 = COX-1 inhibitory activity (Table 3); format: biochemical; design: dose or concentration left out as unconfirmed
COX-1 and COX-2 = conditions: cited from earlier work
[1] = system: bladder cancer PDX BL0269; assay: tumor growth in NSG-PDX bladder cancer mouse model BL0269; format: in vivo, NSG mice
Protocol: (§1) Materials and Supplies. Bladder cancer subject-derived xenograft (PDX) models were provided by The Jackson Laboratory (JAX, Bar Harbor, Me.). […] All experiments utilized PDX models within the first five passages. […] Gemcitabine was purchased from LC Laboratories (Woburn, Mass.). […] The cell lines have not been tested and authenticated by the authors.
(§2) PDX bladder cancer. NSG PDX studies were performed at the University of California Davis with IACUC approval. […] Gemcitabine was dissolved in 0.9% saline and administered at a dose of 150 mg/kg (IP, weekly) for 4 weeks. Animal weight and tumor size were measured twice per week. […] The percentage of tumor growth inhibition (TGI) was calculated as follows; 100%×(1−[(V^treated(final day)−V^treated(initial day))/(V^control(final day)−V^control(initial day))]), where V is tumor volume.
(§3) Statistics. Data are presented as mean±standard error of the mean (SEM) or mean±standard deviation (SD). Group comparisons were carried out using one-way analysis of variance or Student's t test. Survival analysis was performed using the Kaplan-Meier method. A p value of less than 0.05 was considered statistically significant.

[2] = system: bladder cancer PDX BL0293; assay: tumor growth and survival in NSG-PDX bladder cancer mouse model BL0293; format: in vivo, NSG mice
Protocol: as §1, §2, §3

[3] = system: 5637 bladder cancer cells; assay: 72 hr cell viability assay (MTS) and combination index, 5637; format: cell-based, human; conditions: single drug, 72 hr
Protocol: Median effect analysis to determine in vitro drug-drug interaction. […] PTUPB was dissolved in dimethyl sulfoxide (DMSO) to a final stock concentration of 10 mM. […] Cells were seeded at 2,000-3,000 cells and 100 μl of medium per well into 96-well plates (Becton Dickinson, Franklin Lakes, N.J.), and incubated overnight. Different concentrations of these two drugs were diluted in culture media and added to each well. The plates were then incubated for an additional 72 hours. The control group was dosed with 0.2% DMSO. Cell viability assays (MTS) were performed according to the manufacturer's protocol (Promega, Madison, Wis.). […] Dose-response curves were generated with GraphPad Prism 5 software (GraphPad Software Inc., La Jolla, Calif.). The combination indices (CI) were determined based on the method of Chou et al (26). CI values were calculated with CompuSyn software (http://www.combosyn.com/).

p-ERK and p-AKT = assay: Western blot of PDX BL0293 tumor tissue; format: in vivo, NSG mice; conditions: day 3; BL0293 tumors
Protocol: Blood samples from mice were collected and analyzed for complete blood count (CBC), blood urea nitrogen (BUN), aspartate aminotransferase (AST), creatinine and total bilirubin at the Veterinary Medicine Comparative Pathology Laboratory of University of California Davis. The tumor, heart, liver, spleen, lung and kidney were harvested and the tissue samples were fixed in formalin or frozen at −80° C. Tumor sections were stained with hematoxylin and eosin (H&E) or were used for immunohistochemistry analysis. A board-certified pathologist provided detailed interpretation of tumor histomorphology and scoring of immunohistochemical staining. Some of the tumor sections were lysed and chromatographed using SDS-PAGE followed by transfer onto a PVDF membrane. […] The membranes were then probed with horseradish peroxidase (HRP) tagged secondary antibodies and epitopes were detected using the ECL Plus Western Blotting Detection Reagent (GE Healthcare, Piscataway, N.J.). Cell proliferation and apoptosis assessed with Ki-67 and cleaved caspase-3 antibodies (Cell Signaling, Danvers, Mass.) using an immunohistochemistry kit per the manufacturer's instructions (BioGenex, Fremont, Calif.).

[4] = system: carboplatin-DNA adducts in BL0293 tumors; assay: carboplatin-DNA adduct formation in vivo (accelerator mass spectrometry); conditions: carboplatin alone; 24 hours after carboplatin
Description: (§4) Accelerator mass spectrometry to determine platinum-DNA adduct formation.
DNA was extracted using a Promega Wizard genomic DNA purification kit according to manufacturer's instructions. Ten micrograms of DNA per sample was submitted to Lawrence Livermore National Laboratory (LLNL) for AMS analysis using previously reported protocol (25).

[5] = system: carboplatin-DNA adducts in 5637 bladder cancer cell line; assay: carboplatin-DNA adduct formation in vitro (accelerator mass spectrometry)
Protocol: as §4
Cells were harvested at the 4 hr time point in one group of dishes and another group was washed and further incubated for 20 hr with fresh drug-free medium before cell harvest in order to determine DNA repair. Cell pellets were stored at −80° C. until DNA extraction.

Compound	COX-1 (% inhibition) (COX-1) [%]	also measured
NS(=O)(=O)c1ccc(-n2nc(CCCNC(=O)Nc3ccc(OC(F)(F)F)cc3)cc2-c2ccccc2)cc1 [compound 2329, 4-(5-Phenyl-3-{3-[3-(4-trifluoromethoxy-phenyl)-ureido]-propyl}-pyrazol-1-yl)-benzenesulfonamide]	13.8	–
NS(=O)(=O)c1ccc(-n2nc(CCCNC(=O)NC3CCCCCC3)cc2-c2ccccc2)cc1 [compound 2247, 4-{3-[3-(3-Cycloheptyl-ureido)-propyl]-5-phenyl-pyrazol-1-yl}-benzenesulfonamide]	10.2	–
NS(=O)(=O)c1ccc(-n2nc(CCNC(=O)Nc3cccc(C(F)(F)F)c3)cc2-c2ccccc2)cc1 [compound 2313, 4-(5-Phenyl-3-{2-[3-(3-trifluoromethyl-phenyl)-ureido]-ethyl}-pyrazol-1-yl)-benzenesulfonamide]	22.0	–
Cc1ccc(-c2cc(CCCNC(=O)Nc3cccc(C(F)(F)F)c3)nn2-c2ccc(S(N)(=O)=O)cc2)cc1 [compound 2152, 4-(5-p-Tolyl-3-{3-[3-(3-trifluoromethyl-phenyl)-ureido]-propyl}-pyrazol-1-yl)-benzenesulfonamide]	12.1	–
CS(=O)(=O)c1ccc(-n2nc(CNC(=O)Nc3ccc(C(F)(F)F)cc3)cc2-c2ccccc2)cc1 [compound 2324, 1-[1-(4-Methanesulfonyl-phenyl)-5-phenyl-1H-pyrazol-3-ylmethyl]-3-(4-trifluoromethyl-phenyl)-urea]	10.7	–
NS(=O)(=O)c1ccc(-n2nc(CCCNC(=O)Nc3ccccc3)cc2-c2ccccc2)cc1 [compound 2245, 4-{5-Phenyl-3-[3-(3-phenyl-ureido)-propyl]-pyrazol-1-yl}-benzenesulfonamide]	15.8	–
CC(=O)Oc1ccccc1C(=O)O [Aspirin, aspirin]	–	COX-2 (IC50)/COX-1 (IC50) ratio (COX-1 and COX-2): 0.32
NS(=O)(=O)c1ccc(-n2nc(CCCNC(=O)Nc3ccc(Cl)cc3)cc2-c2ccccc2)cc1 [compound 2327, 4-(3-{3-[3-(4-Chloro-phenyl)-ureido]-propyl}-5-phenyl-pyrazol-1-yl)-benzenesulfonamide]	15.2	–
CS(=O)(=O)c1ccc(-n2nc(CNC(=O)NC34CC5CC(CC(C5)C3)C4)cc2-c2ccccc2)cc1 [compound 1860, 1-Adamantan-1-yl-3-[1-(4-methanesulfonyl-phenyl)-5-phenyl-1H-pyrazol-3-ylmethyl]-urea]	12.7	–
CS(=O)(=O)c1ccc(-n2nc(CNC(=O)NC3CCCCCC3)cc2-c2ccccc2)cc1 [compound 2321, 1-Cycloheptyl-3-[1-(4-methanesulfonyl-phenyl)-5-phenyl-1H-pyrazol-3-ylmethyl]-urea]	3.4	–
NS(=O)(=O)c1ccc(-n2nc(CCCNC(=O)Nc3cccc(C(F)(F)F)c3)cc2-c2ccccc2)cc1 [compound 2246, 4-(5-Phenyl-3-{3-[3-(3-trifluoromethyl-phenyl)-ureido]-propyl}-pyrazol-1-yl)-benzenesulfonamide]	27.2	–
O=C(NC12CC3CC(CC(C3)C1)C2)N[C@H]1CC[C@H](Oc2ccc(C(=O)O)cc2)CC1 [t-AUCB, trans-4-[4-(3-Adamantan-1-yl-ureido)-cyclohexyloxy]-benzoic acid]	–	potentiation of cisplatin with respect to inhibiting tumor growth ([1]; combined with cisplatin 2 mg/kg): moderate additive effect
NS(=O)(=O)c1ccc(-n2nc(CNC(=O)Nc3cccc(C(F)(F)F)c3)cc2-c2ccccc2)cc1 [compound 2107, 4-{5-Phenyl-3-[3-(3-trifluoromethyl-phenyl)-ureidomethyl]-pyrazol-1-yl}-benzenesulfonamide]	16.9	–
CC(C)(C)c1cc(CNC(=O)Nc2cccc(C(F)(F)F)c2)nn1-c1ccc(S(C)(=O)=O)cc1 [compound 2106, 1-[5-tert-Butyl-1-(4-methanesulfonyl-phenyl)-1H-pyrazol-3-ylmethyl]-3-(3-trifluoromethyl-phenyl)-urea]	2.4	–
N.N.[Cl][Pt][Cl] [cisplatin, reference compound]	–	overall survival ([2]; BL0293, PTUPB 30 mg/kg orally once daily, cisplatin 2 mg/kg i.v.): 47.0 days and 47 days; anti-tumor activity, single agent ([2]; mice bearing BL0293 tumors): moderate anti-tumor activity; pIC50 [3]: 5.35; tumor growth [1]: resistant; levels of p-ERK and p-AKT (p-ERK and p-AKT): did not significantly diminish
CC(C)c1cccc(C(C)C)c1NC(=O)NCCCc1cc(-c2ccccc2)n(-c2ccc(S(N)(=O)=O)cc2)n1 [compound 2325, 4-(3-{3-[3-(2,6-Diisopropyl-phenyl)-ureido]-propyl}-5-phenyl-pyrazol-1-yl)-benzenesulfonamide]	6.2	–
COc1ccc2c(c1)c(CC(=O)O)c(C)n2C(=O)c1ccc(Cl)cc1 [indomethacin]	–	COX-2 (IC50)/COX-1 (IC50) ratio (COX-1 and COX-2): 33
CS(=O)(=O)c1ccc(-n2nc(CNC(=O)Nc3cccc(C(F)(F)F)c3)cc2-c2ccccc2)cc1 [compound 1861, 1-[1-(4-Methanesulfonyl-phenyl)-5-phenyl-1H-pyrazol-3-ylmethyl]-3-(3-trifluoromethyl-phenyl)-urea]	7.8	–
NS(=O)(=O)c1ccc(-n2nc(NC(=O)Nc3cccc(C(F)(F)F)c3)cc2-c2ccccc2)cc1 [compound 2121, 4-{5-Phenyl-3-[3-(3-trifluoromethyl-phenyl)-ureido]-pyrazol-1-yl}-benzenesulfonamide]	33.9	–
CS(=O)(=O)c1ccc(-n2nc(CNC(=O)Nc3ccc(OC(F)(F)F)cc3)cc2-c2ccccc2)cc1 [compound 2323, 1-[1-(4-Methanesulfonyl-phenyl)-5-phenyl-1H-pyrazol-3-ylmethyl]-3-(4-trifluoromethoxy-phenyl)-urea]	10.4	–
Nc1ccn([C@@H]2O[C@H](CO)[C@@H](O)C2(F)F)c(=O)n1 [gemcitabine]	–	tumor growth [1]: resistant
carboplatin	–	carboplatin-DNA adduct levels in tumor DNA [4]: 1070±317 adducts/10^8 nt; DNA repair rate ([5]; 5637 cells): 21.2 +/−1.3 adducts/10^8 nt per hour; platinum-DNA adduct formation ([5]; after 4h, carboplatin 100 μM, PTUPB 10 μM simultaneously): 528±41 adducts per 10^8 nt; platinum-DNA adduct levels ([5]; at 24 hours (4 hours drug, 20 hours drug-free medium)): 104.1 +/−17.7 adducts/10^8 nt; carboplatin induced DNA adduct formation ([5]; pretreatment with 10 μM PTUPB for 5 hours, then carboplatin): 706 +/−26 adducts per 10^8 nt
CS(=O)(=O)c1ccc(-n2nc(CCCNC(=O)Nc3cccc(C(F)(F)F)c3)cc2-c2ccccc2)cc1 [compound 1862, 1-{3-[1-(4-Methanesulfonyl-phenyl)-5-phenyl-1H-pyrazol-3-yl]-propyl}-3-(3-trifluoromethyl-phenyl)-urea]	6.4	–
NS(=O)(=O)c1ccc(-n2nc(CCCNC(=O)NC34CC5CC(CC(C5)C3)C4)cc2-c2ccccc2)cc1 [compound 2326, 4-{3-[3-(3-Adamantan-1-yl-ureido)-propyl]-5-phenyl-pyrazol-1-yl}-benzenesulfonamide]	6.7	–
